In ChEMBL document CHEMBL6083219, “Rationally designed febuxostat-based hydroxamic acid and its pH-Responsive nanoformulation elicits anti-tumor activity” (Eur J Med Chem, 2024):
Calls of active or inactive are those of the source. The rule behind the calls is not given here.

Experiments:
[1] = molecular target: Xanthine dehydrogenase/oxidase (Bos taurus, UniProt P80457); assay: Inhibition of bovine milk xanthine oxidase
NCI-H1975 = format: functional, cell-based; conditions: Homo sapiens, NCI-H1975, 48 h
HL-60 [2] = format: functional, cell-based; conditions: Homo sapiens, HL-60, 48 h
HL-60 [3] = assay: Downregulation of HDAC1 expression level in human HL-60 cells at 0.5 to 2 uM by Western blotting analysis; format: functional, cell-based; conditions: dose 0.5-2 µM
HL-60 [4] = assay: Downregulation of HDAC2 expression level in human HL-60 cells at 0.5 to 2 uM by Western blotting analysis; format: functional, cell-based; conditions: dose 0.5-2 µM
HL-60 [5] = assay: Downregulation of HDAC3 expression level in human HL-60 cells at 0.5 to 2 uM by Western blotting analysis; format: functional, cell-based; conditions: dose 0.5-2 µM
MDA-MB-231 [6] = assay: Downregulation of HDAC1 expression level in human MDA-MB-231 cells at 0.5 to 2 uM by Western blotting analysis; format: functional, cell-based; conditions: dose 0.5-2 µM
MDA-MB-231 [7] = assay: Downregulation of HDAC6 expression level in human MDA-MB-231 cells at 0.5 to 2 uM by Western blotting analysis; format: functional, cell-based; conditions: dose 0.5-2 µM
HL-60 [8] = assay: Upregulation of acetylated alpha tubulin level in human HL-60 cells by Western blotting analysis; format: functional, cell-based; conditions: dose 0.5-2 µM
MDA-MB-231 [9] = assay: Upregulation of acetylated histone H3 level in human MDA-MB-231 cells by Western blotting analysis; format: functional, cell-based; conditions: dose 0.5-2 µM
MDA-MB-231 [10] = assay: Upregulation of acetylated tubulin level in human MDA-MB-231 cells by Western blotting analysis; format: functional, cell-based; conditions: dose 0.5-2 µM
HL-60 [11] = assay: Downregulation of mTOR expression level in human HL-60 cells at 0.5 to 2 uM by Western blotting analysis; format: functional, cell-based; conditions: dose 0.5-2 µM
HL-60 [12] = assay: Upregulation of cleaved caspase-3 expression level in human HL-60 cells at 0.5 to 2 uM by Western blotting analysis; format: functional, cell-based; conditions: dose 0.5-2 µM
HL-60 [13] = assay: Induction of apoptosis in human HL-60 cells assessed as morphological changes at 0.5 to 2 uM by DAPI staining based microscopic analysis; format: functional, cell-based; conditions: dose 0.5-2 µM
Mitochondrial membrane = assay: Induction of mitochondrial membrane potential loss in human HL-60 cells at 0.5 to 2 uM by rhodamine 123 staining based flow cytometry analysis; conditions: dose 0.5-2 µM
HL-60 [14] = assay: Induction of autophagy in human HL-60 cells assessed as upregulation of LC3-II expression level at 0.5 to 2 uM by Western blotting assay; format: functional, cell-based; conditions: dose 0.5-2 µM
MDA-MB-231 [15] = assay: Induction of apoptosis in human MDA-MB-231 cells assessed as G2/M phase arrest at 0.5 to 1 uM incubated for 48 hrs; format: functional, cell-based; conditions: dose 0.5-1 µM
MDA-MB-231 [16] = assay: Induction of apoptosis in human MDA-MB-231 cells assessed as cell death at sub-G1 phase at 0.5 to 1 uM incubated for 48 hrs; format: functional, cell-based; conditions: dose 0.5-1 µM
MDA-MB-231 [17] = assay: Induction of autophagy in human MDA-MB-231 cells assessed as upregulation of LC3-II expression level at 1 to 4 uM by Western blotting assay; format: functional, cell-based; conditions: dose 1-4 µM
HL-60 [18] = assay: Antitumor activity against human HL-60 cells xenografted in ip dosed BALB/c nude mouse model assessed as reduction in tumor volume and measured twice a week for 22 days; format: functional, organism-based; conditions: dose 50-100 mg/kg, time 22.0 day
HL-60 [19] = assay: Antitumor activity against human HL-60 cells xenografted in BALB/c nude mouse model assessed as reduction in tumor volume at 50 to 100 mg/kg, ip measured twice a week for 22 days; format: functional, organism-based; conditions: dose 50-100 mg/kg, time 22.0 day
Rattus norvegicus [20] = assay: Anti-hyperuricemic activity against potassium oxonate-induced hyperuricemia Wistar rat model assessed as decrease in serum uric acid level at 2.5 mg/kg measured after 14 days; format: functional, organism-based; conditions: time 14.0 day
Rattus norvegicus [21] = assay: Anti-hyperuricemic activity against potassium oxonate-induced hyperuricemia Wistar rat model assessed as decrease in serum uric acid level at 10 mg/kg measured after 14 days; format: functional, organism-based; conditions: time 14.0 day
Rattus norvegicus [22] = assay: Anti-hyperuricemic activity against potassium oxonate-induced hyperuricemia Wistar rat model assessed as decrease in blood urea level at 2.5 mg/kg measured after 14 days; format: functional, organism-based; conditions: time 14.0 day
Rattus norvegicus [23] = assay: Anti-hyperuricemic activity against potassium oxonate-induced hyperuricemia Wistar rat model assessed as effect on complete blood count at 2.5 mg/kg measured after 14 days; format: functional, organism-based; conditions: time 14.0 day
Rattus norvegicus [24] = assay: Anti-hyperuricemic activity against potassium oxonate-induced hyperuricemia Wistar rat model assessed as decrease in number of eosinophils at 5 mg/kg measured after 14 days; format: functional, organism-based; conditions: time 14.0 day
Rattus norvegicus [25] = assay: Anti-hyperuricemic activity against potassium oxonate-induced hyperuricemia Wistar rat model assessed as increase in neutrophils at 5 mg/kg measured after 14 days; format: functional, organism-based; conditions: time 14.0 day
Rattus norvegicus [26] = assay: Anti-hyperuricemic activity against potassium oxonate-induced hyperuricemia Wistar rat model assessed as increase in monocytes at 5 mg/kg measured after 14 days; format: functional, organism-based; conditions: time 14.0 day
Rattus norvegicus [27] = assay: Anti-hyperuricemic activity against potassium oxonate-induced hyperuricemia Wistar rat model assessed as increase in RBC at 5 mg/kg measured after 14 days; format: functional, organism-based; conditions: time 14.0 day
Rattus norvegicus [28] = assay: Anti-hyperuricemic activity against potassium oxonate-induced hyperuricemia Wistar rat model assessed as increase in hemoglobin levels at 5 mg/kg measured after 14 days; format: functional, organism-based; conditions: time 14.0 day
Rattus norvegicus [29] = assay: Anti-hyperuricemic activity against potassium oxonate-induced hyperuricemia Wistar rat model assessed as increase in platelet counts at 5 mg/kg measured after 14 days; format: functional, organism-based; conditions: time 14.0 day
Rattus norvegicus [30] = assay: Anti-hyperuricemic activity against potassium oxonate-induced hyperuricemia Wistar rat model assessed as enhancement in complete blood count at 10 mg/kg measured after 14 days; format: functional, organism-based; conditions: time 14.0 day
Rattus norvegicus [31] = assay: Anti-hyperuricemic activity against potassium oxonate-induced hyperuricemia Wistar rat model assessed as improvement in renal condition at 2.5 mg/kg measured after 14 days by H and E staining based assay; format: functional, organism-based; conditions: time 14.0 day
Rattus norvegicus [32] = assay: Anti-hyperuricemic activity against potassium oxonate-induced hyperuricemia Wistar rat model assessed as improvement in renal condition at 5 mg/kg by measuring decrease in degeneration of tubular cells measured after 14 days by H and E staining based assay; format: functional, organism-based; conditions: time 14.0 day
Rattus norvegicus [33] = assay: Anti-hyperuricemic activity against potassium oxonate-induced hyperuricemia Wistar rat model assessed as improvement in renal condition at 5 mg/kg by measuring decrease in enlargement of tubular cells measured after 14 days by H and E staining based assay; format: functional, organism-based; conditions: time 14.0 day
Rattus norvegicus [34] = assay: Anti-hyperuricemic activity against potassium oxonate-induced hyperuricemia Wistar rat model assessed as improvement in renal condition by measuring decrease in tubular cell necrosis at 10 mg/kg measured after 14 days by H and E staining based assay; format: functional, organism-based; conditions: time 14.0 day
Rattus norvegicus [35] = assay: Anti-hyperuricemic activity against potassium oxonate-induced hyperuricemia Wistar rat model assessed as improvement in renal condition by measuring normal glomeruli appearance at 10 mg/kg measured after 14 days by H and E staining based assay; format: functional, organism-based; conditions: time 14.0 day
Rattus norvegicus [36] = assay: Anti-hyperuricemic activity against potassium oxonate-induced hyperuricemia Wistar rat model assessed as improvement in renal condition by measuring normal glomeruli size at 10 mg/kg measured after 14 days by H and E staining based assay; format: functional, organism-based; conditions: time 14.0 day
Rattus norvegicus [37] = assay: Anti-hyperuricemic activity against potassium oxonate-induced hyperuricemia Wistar rat model assessed as increase in number of cuboidal cells at 10 mg/kg measured after 14 days by H and E staining based assay; format: functional, organism-based; conditions: time 14.0 day
HL-60 [38] = assay: Cytotoxicity against human HL-60 cells incubated for 1 day by MTT assay; format: functional, cell-based; conditions: HL-60, 24 h
MOLT-4 = assay: Cytotoxicity against human MOLT-4 cells incubated for 1 day by MTT assay; format: functional, cell-based; conditions: MOLT-4, 24 h
[39] = Cytotoxicity against mouse L929 cells incubated for 1 day by MTT assay; format: toxicity, cell-based
MDA-MB-231 [40] = assay: cells; conditions: Homo sapiens, MDA-MB-231, 48 h
Description: Cytotoxicity against human MDA-MB-231 cells incubated for 48 hrs by MTT assay

Xanthine dehydrogenase/oxidase, sequence (P80457 whole entry): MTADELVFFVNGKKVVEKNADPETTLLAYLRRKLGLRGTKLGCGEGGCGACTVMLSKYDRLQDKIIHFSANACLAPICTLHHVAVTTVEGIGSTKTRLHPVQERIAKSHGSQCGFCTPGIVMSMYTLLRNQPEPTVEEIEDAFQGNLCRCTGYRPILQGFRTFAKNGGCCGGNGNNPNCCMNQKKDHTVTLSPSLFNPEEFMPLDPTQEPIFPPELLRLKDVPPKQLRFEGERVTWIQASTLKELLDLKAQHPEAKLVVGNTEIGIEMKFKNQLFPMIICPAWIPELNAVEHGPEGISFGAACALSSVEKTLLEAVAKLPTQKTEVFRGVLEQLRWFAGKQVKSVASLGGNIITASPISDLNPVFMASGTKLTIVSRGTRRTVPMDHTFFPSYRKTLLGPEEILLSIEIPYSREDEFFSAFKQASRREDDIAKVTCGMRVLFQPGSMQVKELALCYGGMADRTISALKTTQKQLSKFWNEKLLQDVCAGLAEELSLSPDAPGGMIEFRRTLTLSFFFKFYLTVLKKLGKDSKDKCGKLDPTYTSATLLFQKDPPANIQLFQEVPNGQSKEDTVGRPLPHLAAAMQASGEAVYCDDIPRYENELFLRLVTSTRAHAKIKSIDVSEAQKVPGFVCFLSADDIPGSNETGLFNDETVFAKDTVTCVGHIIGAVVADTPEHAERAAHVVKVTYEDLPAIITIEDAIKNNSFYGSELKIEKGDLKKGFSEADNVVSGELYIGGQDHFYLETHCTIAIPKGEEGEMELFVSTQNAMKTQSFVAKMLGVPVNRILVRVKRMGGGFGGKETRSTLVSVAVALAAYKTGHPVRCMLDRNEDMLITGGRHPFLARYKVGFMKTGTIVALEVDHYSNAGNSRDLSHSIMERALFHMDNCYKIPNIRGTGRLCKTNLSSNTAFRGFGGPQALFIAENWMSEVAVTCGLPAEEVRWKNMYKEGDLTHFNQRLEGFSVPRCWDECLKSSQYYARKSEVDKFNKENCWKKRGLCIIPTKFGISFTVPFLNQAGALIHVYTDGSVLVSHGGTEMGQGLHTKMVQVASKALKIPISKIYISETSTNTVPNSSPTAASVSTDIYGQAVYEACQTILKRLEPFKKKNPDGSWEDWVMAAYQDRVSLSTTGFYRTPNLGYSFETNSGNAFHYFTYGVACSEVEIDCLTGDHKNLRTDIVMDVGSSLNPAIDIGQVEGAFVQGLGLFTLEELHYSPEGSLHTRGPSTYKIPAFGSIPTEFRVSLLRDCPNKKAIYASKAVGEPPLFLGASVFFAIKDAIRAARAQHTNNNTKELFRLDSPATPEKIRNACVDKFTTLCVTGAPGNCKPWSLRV

In the case of Cc1nc(-c2ccc(OCC(C)C)c(C#N)c2)sc1C(=O)NCCCCCCC(=O)NO, the IC50 [1] is reported as 6.6 nM, the IC50 (NCI-H1975) is reported as 5440 nM and the IC50 (HL-60 [2]) is reported as 706 nM. The Activity (HL-60 [3]) was “Active; Activity More Potent Than Saha”, the Activity (HL-60 [4]) was “Active; Activity More Potent Than Saha” and the Activity (HL-60 [5]) was “Active; Activity More Potent Than Saha”. For the same compound, the Activity (MDA-MB-231 [6]) was “Active”, the Activity (MDA-MB-231 [7]) was “Active” and the Activity (HL-60 [8]) was “Dose-dependent-effect”. For the same compound, the Activity (MDA-MB-231 [9]) was “Dose-dependent-effect”, the Activity (MDA-MB-231 [10]) was “Dose-dependent-effect” and the Activity (HL-60 [11]) was “Active”. The Activity (HL-60 [12]) was “Active”, the Activity (HL-60 [13]) was “Active” and the Activity (Mitochondrial membrane) was “Active”. For the same compound, the Activity (HL-60 [14]) was “Active”, the Activity (MDA-MB-231 [15]) was “Active” and the Activity (MDA-MB-231 [16]) was “Active”. For the same compound, the Activity (MDA-MB-231 [17]) was “Active”, the Activity (HL-60 [18]) was “Dose-dependent-effect” and the Activity (HL-60 [19]) was “Active; Activity More Potent Than Saha”. The Activity (Rattus norvegicus [20]) was “inactive”, the Activity (Rattus norvegicus [21]) was “Active” and the Activity (Rattus norvegicus [22]) was “inactive”. For the same compound, the Activity (Rattus norvegicus [23]) was “inactive”, the Activity (Rattus norvegicus [24]) was “Active” and the Activity (Rattus norvegicus [25]) was “Active”. The Activity (Rattus norvegicus [26]) was “Active”, the Activity (Rattus norvegicus [27]) was “Active” and the Activity (Rattus norvegicus [28]) was “Active”. The Activity (Rattus norvegicus [29]) was “Active”, the Activity (Rattus norvegicus [30]) was “Active” and the Activity (Rattus norvegicus [31]) was “inactive”. The Activity (Rattus norvegicus [32]) was “Active”, the Activity (Rattus norvegicus [33]) was “Active” and the Activity (Rattus norvegicus [34]) was “Active”. The Activity (Rattus norvegicus [35]) was “Active”, the Activity (Rattus norvegicus [36]) was “Active” and the Activity (Rattus norvegicus [37]) was “Active”. It also gave an IC50 (HL-60 [38]) of 706 nM, an IC50 (MOLT-4) of 1190 nM and an IC50 at 1 day [39] of 2230 nM. For the same compound, the IC50 (MDA-MB-231 [40]) was 2940 nM.
